# Measurements as given in article PMC4402028 (Journal of Clinical Pharmacology, 2015).
# Where “and” joins values, the source holds several entries; their conditions need not be identical. Equal entries are not always repeated. Where two headings read alike, the source gives them in different places.
# Assays:
# MRP2 [1] = details: read-out: Ki for MRP2; cited from earlier work
# [2] = assay type: in vivo, human; details: for AUC(0–inf), Ratio (%) of Geometric LS Means: all profiles with estimable elimination rates; for CL renal: plasma and urine, CLr; for Vd/F: Vz/F
# Safety and tolerability = assay type: in vivo, human
# [3] = Allometric PK scaling of CLTOT to human
# [4] = Semiphysiological integrated PK/ADME model; parameters: species or system human; details: for clearance: oral
# [5] = humans; single 300 mg radiolabeled dose; ref data on file at Furiex; cited from earlier work
# [6] = in vitro or in vivo, except slow formation of a glucuronide found in human urine after 1,000 mg oral dose; ref data on file at Furiex; cited from earlier work
# [7] = ref data on file at Furiex; cited from earlier work
# Caco2 cell-line = details: ref data on file at Furiex; cited from earlier work
# OAT1 [8] = details: in vitro; ref data on file at Furiex; cited from earlier work
# OCT1 [9] = details: in vitro; ref data on file at Furiex; cited from earlier work
# OCT2 [10] = details: in vitro; ref data on file at Furiex; cited from earlier work
# OATP1B3 [11] = details: in vitro; ref data on file at Furiex; cited from earlier work
# P-gp = details: in vitro; ref data on file at Furiex; cited from earlier work
# BCRP [12] = details: in vitro; ref data on file at Furiex; cited from earlier work
# MRP2 [13] = details: in vitro; ref data on file at Furiex; cited from earlier work
# BCRP [14] = details: in vitro; ref data on file at Furiex; cited from earlier work; remark: listed apart in the source
# BSEP = details: in vitro; ref data on file at Furiex; cited from earlier work
# MRP2 [15] = details: in vitro; ref data on file at Furiex; cited from earlier work; remark: listed apart in the source
# OCT1 [16] = details: in vitro; ref data on file at Furiex; cited from earlier work; remark: listed apart in the source
# OCT2 [17] = details: in vitro; ref data on file at Furiex; cited from earlier work; remark: listed apart in the source
# OAT1 [18] = details: in vitro; ref data on file at Furiex; cited from earlier work; remark: listed apart in the source
# OAT3 = details: in vitro; ref data on file at Furiex; cited from earlier work
# OATP1B3 [19] = details: in vitro; ref data on file at Furiex; cited from earlier work; remark: listed apart in the source
# CYP-450s = details: in vitro; ref data on file at Furiex; cited from earlier work
# [20] = Rat; IV 10 mg/kg; ref Furiex Studies DD7393, FK10138, FK10141, and FK10142; cited from earlier work
# [21] = Cynos; IV 10 mg/kg; ref Furiex Studies DD7393, FK10138, FK10141, and FK10142; cited from earlier work
# [22] = Rhesus; IV 3.2 mg/kg; ref Furiex Studies DD7393, FK10138, FK10141, and FK10142; cited from earlier work
# [23] = Dog; IV 2 mg/kg; ref Furiex Studies DD7393, FK10138, FK10141, and FK10142; cited from earlier work
# [24] = plasma protein binding; model input, source not stated; cited from earlier work
# [25] = both, human, plasma, oral, eluxadoline 100 mg plus cyclosporine 600 mg, arithmetic mean (CV), n = 19
# [26] = both, human, plasma, oral, eluxadoline 100 mg plus probenecid 500 mg, arithmetic mean (CV), n = 20
# [27] = coadministered with probenecid vs eluxadoline alone
# [28] = human, reference case without inhibitor, estimated
# [29] = in the presence of cyclosporine
smiles,measurement,setting,value
CCCN(CCC)S(=O)(=O)c1ccc(C(=O)O)cc1 [probenecid],Ki,MRP2 [1],44.6 µM
COc1ccc(CN(C(=O)[C@@H](N)Cc2c(C)cc(C(N)=O)cc2C)[C@@H](C)c2ncc(-c3ccccc3)[nH]2)cc1C(=O)O [eluxadoline],"Cmax, Ratio (%) of Geometric LS Means",[2]; B/A: with cyclosporine 600 mg vs eluxadoline alone,6.18%
same,"AUC(0–inf), Ratio (%) of Geometric LS Means",[2]; B/A: with cyclosporine vs alone,4.25%
same,"Cmax, Ratio (%) of Geometric LS Means",[2]; C/A: with probenecid 500 mg vs eluxadoline alone,1.31%
same,"AUC(0–inf), Ratio (%) of Geometric LS Means",[2]; C/A: with probenecid vs alone,1.48%
same,CL renal,"[2]; both, human, oral, eluxadoline 100 mg plus cyclosporine 600 mg, arithmetic mean (CV)",96.7 mL/min
same,CL renal,"[2]; both, human, oral, eluxadoline 100 mg plus probenecid 500 mg, arithmetic mean (CV)",61.7 mL/min
same,Tmax,"[2]; both, human, plasma, oral, 100 mg",2.1 h
same,AUC(0-inf),"[2]; both, human, plasma, oral, 100 mg, Geometric LS Means, Treatment A, all profiles with estimable elimination rates (N 20)",14.7 ng·h/mL
same,AUC(0-inf),"[2]; both, human, plasma, oral, 100 mg, Geometric LS Means, Treatment A, only subjects with estimable elimination rates for all 3 treatments (N 7)",15.7 ng·h/mL
same,AUC(0-inf),"[2]; both, human, plasma, oral, Geometric LS Means, Treatment B (+ cyclosporine 600 mg), all profiles with estimable elimination rates (N 19)",62.6 ng·h/mL
same,AUC(0-inf),"[2]; both, human, plasma, oral, Geometric LS Means, Treatment B (+ cyclosporine 600 mg), only subjects with estimable elimination rates for all 3 treatments (N 7)",79.9 ng·h/mL
same,AUC(0-inf),"[2]; both, human, plasma, oral, Geometric LS Means, Treatment C (+ probenecid 500 mg), all profiles with estimable elimination rates (N 20)",21.8 ng·h/mL
same,AUC(0-inf),"[2]; both, human, plasma, oral, Geometric LS Means, Treatment C (+ probenecid 500 mg), only subjects with estimable elimination rates for all 3 treatments (N 7)",20.4 ng·h/mL
same,AUC(0-inf),[2]; [25],75.3 ng·h/mL
same,AUC(0-inf),[2]; [26],23 ng·h/mL
same,Cmax,"[2]; both, human, plasma, oral, eluxadoline 100 mg plus cyclosporine 600 mg, arithmetic mean (CV), N = 30",20.9 ng/mL
same,Cmax,"[2]; both, human, plasma, oral, eluxadoline 100 mg plus probenecid 500 mg, arithmetic mean (CV), N = 29",3.6 ng/mL
same,Vd/F,[2]; [25],20700 L
same,Vd/F,[2]; [26],37100 L
same,half-life,"[2]; both, human, plasma, oral, t1/2, eluxadoline 100 mg plus cyclosporine 600 mg, arithmetic mean (CV), n = 19",7.4 h
same,half-life,"[2]; both, human, plasma, oral, t1/2, eluxadoline 100 mg plus probenecid 500 mg, arithmetic mean (CV), n = 20",5.1 h
same,effect on renal clearance (CLren) of eluxadoline,[2]; by cyclosporine,little effect
same,reduction of renal clearance (CLren),[2]; by probenecid,~50%
same,"increase in AUC(0–inf), geometric mean ratio","[2]; coadministered with cyclosporine vs alone, subjects with estimable elimination rates for all 3 treatments",5.1 fold
same,increase in peak exposure (Cmax),[2]; coadministered with cyclosporine vs eluxadoline alone,6.2 fold
same,increase in peak exposure (Cmax),[2]; [27],1.3 fold and 1.31 fold
same,increase in systemic/total exposure [AUC(0–inf)],[2]; [27],1.30 fold and 1.3 fold
same,"CLren, mean (CV%)",[2]; eluxadoline 100 mg alone,116 (20%) mL/min and 116 mL/min
same,"%Fe(0–72), cumulative urinary excretion over 72 hours as fraction of the dose","[2]; eluxadoline 100 mg alone, arithmetic mean (CV)",0.12%
same,"%Fe(0–72), cumulative urinary excretion over 72 hours as fraction of the dose","[2]; eluxadoline 100 mg alone, arithmetic mean (CV), listed as Eluxadoline",0.12 (52) %
same,CL/F,"[2]; eluxadoline 100 mg alone, arithmetic mean (CV), n = 20",7550 (54) L/h
same,"%Fe(0–72), cumulative urinary excretion over 72 hours as fraction of the dose","[2]; eluxadoline 100 mg plus cyclosporine 600 mg, arithmetic mean (CV)",0.46%
same,CL/F,"[2]; eluxadoline 100 mg plus cyclosporine 600 mg, arithmetic mean (CV), n = 19",1943 (69) L/h
same,"%Fe(0–72), cumulative urinary excretion over 72 hours as fraction of the dose","[2]; eluxadoline 100 mg plus probenecid 500 mg, arithmetic mean (CV)",0.08%
same,"%Fe(0–72), cumulative urinary excretion over 72 hours as fraction of the dose","[2]; eluxadoline 100 mg plus probenecid 500 mg, arithmetic mean (CV), listed as Eluxadoline",0.08 (39) %
same,CL/F,"[2]; eluxadoline 100 mg plus probenecid 500 mg, arithmetic mean (CV), n = 20",5645 (53) L/h
same,Tmax,"[2]; eluxadoline 100 mg plus probenecid 500 mg, median (minimum, maximum)","2.5 (0.25, 6.0) hours"
same,"CLren, mean (CV%)",[2]; in the presence of cyclosporine 600 mg,97 (19%) mL/min and 97 mL/min
same,"CLren, mean (CV%)",[2]; in the presence of probenecid 500 mg,62 (25%) mL/min and 62 mL/min
same,fraction of the eluxadoline dose excreted in urine unchanged (%Fe),[2]; with or without cyclosporine and probenecid,less than 1%
same,nausea,Safety and tolerability; after eluxadoline alone,not reported
same,subjects reporting gastrointestinal AEs,Safety and tolerability; after eluxadoline alone (1 subject),3%
same,subjects reporting AEs,Safety and tolerability; after eluxadoline alone (2 subjects),7%
same,subjects reporting nausea,Safety and tolerability; after eluxadoline combined with cyclosporine (3 subjects),10.0%
same,subjects reporting gastrointestinal AEs,Safety and tolerability; after eluxadoline combined with probenecid (2 subjects),7%
same,subjects reporting gastrointestinal AEs,Safety and tolerability; after eluxadoline in combination with cyclosporine (4 subjects),13%
same,subjects reporting AEs,Safety and tolerability; after eluxadoline in combination with cyclosporine (6 subjects),20%
same,subjects reporting nausea,Safety and tolerability; after eluxadoline with probenecid (1 subject),3%
same,clearance,[3],12.6 mL/min/kg and 949 mL/min
same,PK-ADME-model-predicted AUC(0–inf),[4]; eluxadoline alone,17.8 ng·h/mL
same,renal excretion as share of overall elimination,[4]; human,12%
same,clearance,"[4]; human, plasma, 200 mg, biliary clearance (CLbil), without inhibitor, estimated",832 mL/min
same,clearance,"[4]; human, plasma, 200 mg, net tubular secretion clearance CLTS, without inhibitor, estimated",459 mL/min
same,bioavailability,"[4]; human, plasma, po, 200 mg",1.02%
same,FGI (extent of GI absorption/GI permeability),[4]; [28],2.3%
same,hepatic extraction ratio (ERhep),[4]; [28],55.8%
same,intrinsic biliary CLint,"[4]; human, without inhibitor, estimated","9,370 mL/min"
same,CLbil,[4]; [29],296 mL/min
same,Foral,[4]; [29],1.82%
same,reduction of CLTS,[4]; [29],24%
same,reduction of biliary CLint,[4]; [29],71%
same,CLbil,[4]; in the presence of probenecid,750 mL/min
same,Foral,[4]; in the presence of probenecid,1.15%
same,reduction of CLTS,[4]; in the presence of probenecid,52%
same,reduction of biliary CLint,[4]; in the presence of probenecid,21%
same,PK-ADME-model-predicted AUC(0–inf),[4]; with cyclosporine,78.3 ng·h/mL
same,model-predicted CLren,[4]; with cyclosporine,92 mL/min
same,PK-ADME-model-predicted AUC(0–inf),[4]; with probenecid,23.6 ng·h/mL
same,model-predicted CLren,[4]; with probenecid,62 mL/min
same,circulating metabolites,[5],no circulating metabolites were detected
same,hepatic drug metabolism,[6],absence of hepatic drug metabolism
same,GI solubility,[7],high
same,Caco2 cell-line permeability,Caco2 cell-line,poor
same,transport by OAT1,OAT1 [8],not to be transported
same,transport by OCT1,OCT1 [9],not to be transported
same,transport by OCT2,OCT2 [10],not to be transported
same,transport by OATP1B3,OATP1B3 [11],not to be transported
same,transport by P-gp,P-gp,not to be transported
same,transport by BCRP,BCRP [12],not to be transported
same,MRP2-dependent vesicular accumulation,MRP2 [13],substrate of MRP2
same,inhibition of BCRP-mediated transport of probe substrates,BCRP [14],did not inhibit
same,inhibition of BSEP-mediated transport of probe substrates,BSEP,did not inhibit
same,inhibition of MRP2-mediated transport of probe substrates,MRP2 [15],did not inhibit
same,inhibition of OCT1-mediated transport of probe substrates,OCT1 [16],did not inhibit
same,inhibition of OCT2-mediated transport of probe substrates,OCT2 [17],did not inhibit
same,inhibition of OAT1-mediated transport of probe substrates,OAT1 [18],did not inhibit
same,inhibition of OAT3-mediated transport of probe substrates,OAT3,did not inhibit
same,inhibition of OATP1B3-mediated transport of probe substrates,OATP1B3 [19],did not inhibit
same,inhibition or induction of CYP-450s,CYP-450s,no inhibition or induction
same,CLtot,[20],44.4 mL/min/kg
same,t½,[20],0.8 h
same,CLtot,[21],18.54 mL/min/kg
same,t½,[21],3.73 h
same,CLtot,[22],28.5 mL/min/kg
same,t½,[22],0.65 h
same,CLtot,[23],19.92 mL/min/kg
same,t½,[23],0.75 h
same,fu (unbound fraction of drug in plasma),[24],19%
